Test system: MV-4-11 cells
Assay: Gene expression microarray analysis (Affymetrix PrimeView) and GSEA
Type: cell-based, human
Design: RFU PODN (11730768_x_at) / Fold change /veh PODN (11730768_x_at) / RFU LINC00158 (11744669_a_at) / Fold change /veh LINC00158 (11744669_a_at) / RFU DUSP10 (11751237_a_at) / Fold change /veh DUSP10 (11751237_a_at) / RFU ID3 (11757404_x_at) / Fold change /veh ID3 (11757404_x_at) / RFU PLEKHG5 (11737974_s_at) / Fold change /veh PLEKHG5 (11737974_s_at) / RFU LRRC4B (11730491_at) / Fold change /veh LRRC4B (11730491_at) / RFU GIMAP4 (11747438_a_at) / Fold change /veh GIMAP4 (11747438_a_at) / RFU KRT8 (11758183_x_at) / Fold change /veh KRT8 (11758183_x_at) / RFU CNN1 (11734310_a_at) / Fold change /veh CNN1 (11734310_a_at) / RFU VPS37D (11726825_at) / Fold change /veh VPS37D (11726825_at) / RFU C10orf10 (11716522_x_at) / Fold change /veh C10orf10 (11716522_x_at) / RFU KIR2DL2 /// KIR2DL4 /// KIR2DL5A /// KIR2DL5B /// KIR2DS1 /// KIR2DS2 /// KIR2DS3 /// KIR2DS4 /// KIR3DL3 /// KIR3DL3 /// KIR3DS1 (11738374_at) / Fold change /veh KIR2DL2 /// KIR2DL4 /// KIR2DL5A /// KIR2DL5B /// KIR2DS1 /// KIR2DS2 /// KIR2DS3 /// KIR2DS4 /// KIR3DL3 /// KIR3DL3 /// KIR3DS1 (11738374_at) / RFU C1QL1 (11718748_at) / Fold change /veh C1QL1 (11718748_at) / RFU TMPRSS4 (11747572_a_at) / Fold change /veh TMPRSS4 (11747572_a_at) / RFU HAMP (11756126_x_at) / Fold change /veh HAMP (11756126_x_at) / RFU RNFT2 (11725882_a_at) / Fold change /veh RNFT2 (11725882_a_at) / RFU NR4A2 (11747474_a_at) / Fold change /veh NR4A2 (11747474_a_at) / RFU ABCC12 (11746883_a_at) / Fold change /veh ABCC12 (11746883_a_at) / RFU TMEM136 (11760407_x_at) / Fold change /veh TMEM136 (11760407_x_at) / RFU CLDN22 /// WWC2 (11732394_at) / Fold change /veh CLDN22 /// WWC2 (11732394_at) / RFU HLA-DPB1 (11760878_x_at) / Fold change /veh HLA-DPB1 (11760878_x_at) / RFU SPINT1 (11716480_a_at) / Fold change /veh SPINT1 (11716480_a_at) / RFU GAP43 (11754022_s_at) / Fold change /veh GAP43 (11754022_s_at) / RFU A4GNT (11735810_at) / Fold change /veh A4GNT (11735810_at) / RFU PRB3 (11715151_x_at) / Fold change /veh PRB3 (11715151_x_at) / RFU TUBB4B (11761932_at) / Fold change /veh TUBB4B (11761932_at) / RFU CAPN14 (11732068_a_at) / Fold change /veh CAPN14 (11732068_a_at) / RFU TMCC2 (11721928_a_at) / Fold change /veh TMCC2 (11721928_a_at) / RFU IRGQ (11745062_a_at) / Fold change /veh IRGQ (11745062_a_at) / RFU FAM174B (11720279_a_at) / Fold change /veh FAM174B (11720279_a_at) / RFU TMPRSS4 (11748680_a_at) / Fold change /veh TMPRSS4 (11748680_a_at) / RFU FAM212B (11763350_a_at) / Fold change /veh FAM212B (11763350_a_at) / RFU PLEKHG5 (11743358_a_at) / Fold change /veh PLEKHG5 (11743358_a_at) / RFU ZSCAN30 (11745921_a_at) / Fold change /veh ZSCAN30 (11745921_a_at) / RFU CMKLR1 (11741424_a_at) / Fold change /veh CMKLR1 (11741424_a_at) / RFU LOC101060620 /// MAPK8IP1 (11723275_at) / Fold change /veh LOC101060620 /// MAPK8IP1 (11723275_at) / RFU SPTSSB (11747773_x_at) / Fold change /veh SPTSSB (11747773_x_at) / RFU PRSS12 (11739890_at) / Fold change /veh PRSS12 (11739890_at) / RFU BIN1 (11741810_x_at) / Fold change /veh BIN1 (11741810_x_at) / RFU WNT11 (11732464_a_at) / Fold change /veh WNT11 (11732464_a_at) / RFU C10orf10 (11716521_a_at) / Fold change /veh C10orf10 (11716521_a_at) / RFU C5orf56 (11738089_at) / Fold change /veh C5orf56 (11738089_at) / RFU CYB561 (11721691_x_at) / Fold change /veh CYB561 (11721691_x_at) / RFU ANKRD19P (11752326_a_at) / Fold change /veh ANKRD19P (11752326_a_at) / RFU OR2T12 /// OR2T33 /// OR2T8 (11738714_s_at) / Fold change /veh OR2T12 /// OR2T33 /// OR2T8 (11738714_s_at) / RFU VCAN (11748164_a_at) / Fold change /veh VCAN (11748164_a_at) / RFU JSRP1 (11732532_at) / Fold change /veh JSRP1 (11732532_at) / RFU KRTAP10-11 (11738290_x_at) / Fold change /veh KRTAP10-11 (11738290_x_at) / RFU MYO3A (11730013_a_at) / Fold change /veh MYO3A (11730013_a_at) / RFU EBF3 (11725865_a_at) / Fold change /veh EBF3 (11725865_a_at) / RFU CAMK2N1 (11719241_x_at) / Fold change /veh CAMK2N1 (11719241_x_at) / RFU C5orf56 (11738088_a_at) / Fold change /veh C5orf56 (11738088_a_at) / RFU OLFML3 (11715873_a_at) / Fold change /veh OLFML3 (11715873_a_at) / RFU LOC100653217 /// NTM (11731650_a_at) / Fold change /veh LOC100653217 /// NTM (11731650_a_at) / RFU MAPK11 (11762145_a_at) / Fold change /veh MAPK11 (11762145_a_at) / RFU FIZ1 (11724087_x_at) / Fold change /veh FIZ1 (11724087_x_at) / RFU OASL (11726364_x_at) / Fold change /veh OASL (11726364_x_at) / RFU SOX15 (11748057_x_at) / Fold change /veh SOX15 (11748057_x_at) / RFU CD79A (11719716_a_at) / Fold change /veh CD79A (11719716_a_at) / RFU HIST1H1D (11736915_at) / Fold change /veh HIST1H1D (11736915_at) / RFU CASKIN2 (11723855_a_at) / Fold change /veh CASKIN2 (11723855_a_at) / RFU LOC730098 (11760151_x_at) / Fold change /veh LOC730098 (11760151_x_at) / RFU OR4N2 (11742367_at) / Fold change /veh OR4N2 (11742367_at) / RFU PRRT2 (11749266_a_at) / Fold change /veh PRRT2 (11749266_a_at) / RFU SNX32 (11753110_a_at) / Fold change /veh SNX32 (11753110_a_at) / RFU CDHR5 (11726645_a_at) / Fold change /veh CDHR5 (11726645_a_at) / RFU RCAN1 (11760418_a_at) / Fold change /veh RCAN1 (11760418_a_at) / RFU FAM167A (11723789_a_at) / Fold change /veh FAM167A (11723789_a_at) / RFU FAM26E (11764081_at) / Fold change /veh FAM26E (11764081_at) / RFU ISYNA1 (11749810_s_at) / Fold change /veh ISYNA1 (11749810_s_at) / RFU ACY1 (11761880_at) / Fold change /veh ACY1 (11761880_at) / RFU 11764098_at / Fold change /veh 11764098_at / RFU SAMD14 (11745864_x_at) / Fold change /veh SAMD14 (11745864_x_at) / RFU NPB (11741838_a_at) / Fold change /veh NPB (11741838_a_at) / RFU TMPRSS6 (11731388_a_at) / Fold change /veh TMPRSS6 (11731388_a_at) / RFU KRTAP10-2 (11738614_at) / Fold change /veh KRTAP10-2 (11738614_at) / RFU ARHGAP8 /// PRR5-ARHGAP8 (11727945_x_at) / Fold change /veh ARHGAP8 /// PRR5-ARHGAP8 (11727945_x_at) / RFU KRTAP5-7 /// NADSYN1 (11734609_at) / Fold change /veh KRTAP5-7 /// NADSYN1 (11734609_at) / RFU RASL12 (11751679_a_at) / Fold change /veh RASL12 (11751679_a_at) / RFU CDKN2B (11736163_a_at) / Fold change /veh CDKN2B (11736163_a_at) / RFU PRF1 (11729649_at) / Fold change /veh PRF1 (11729649_at) / RFU, ZNF638 /// ZNF638-IT1 / Fold change vs veh, ZNF638 /// ZNF638-IT1 / RFU, PANK3 / Fold change vs veh, PANK3 / RFU, SH3YL1 / Fold change vs veh, SH3YL1 / RFU, ZEB2 / Fold change vs veh, ZEB2 / RFU, NRIP1 / Fold change vs veh, NRIP1 / RFU, PTTG1IP / Fold change vs veh, PTTG1IP / RFU, CAPN2 / Fold change vs veh, CAPN2 / RFU, MED14 / Fold change vs veh, MED14 / RFU, SNORA58 / Fold change vs veh, SNORA58 / RFU, C1orf63 / Fold change vs veh, C1orf63 / RFU, LRRFIP1 / Fold change vs veh, LRRFIP1 / RFU, NDUFAF7 / Fold change vs veh, NDUFAF7 / RFU, SLC12A2 / Fold change vs veh, SLC12A2 / RFU, IBTK / Fold change vs veh, IBTK / RFU, ESF1 / Fold change vs veh, ESF1 / Fold change vs veh, TMEM50B / RFU, TAOK1 / Fold change vs veh, TAOK1 / RFU, ACBD3 / Fold change vs veh, ACBD3 / RFU, TMA16 / Fold change vs veh, TMA16 / RFU, RWDD3 / Fold change vs veh, RWDD3 / RFU, BCAT1 / Fold change vs veh, BCAT1 / RFU, EDEM3 / Fold change vs veh, EDEM3 / RFU, TMEM33 / Fold change vs veh, TMEM33 / RFU, WDR75 / Fold change vs veh, WDR75 / RFU, AHCTF1 / Fold change vs veh, AHCTF1 / RFU, TFRC / Fold change vs veh, TFRC / RFU, ZDHHC17 / Fold change vs veh, ZDHHC17 / RFU, NOM1 / Fold change vs veh, NOM1 / RFU, ARL8B / Fold change vs veh, ARL8B / RFU, ZBTB11 / Fold change vs veh, ZBTB11 / RFU, TAMM41 / Fold change vs veh, TAMM41 / RFU, KIAA1704 /// LOC100996395 / Fold change vs veh, KIAA1704 /// LOC100996395 / RFU, ING1 / Fold change vs veh, ING1 / RFU, TRMT61B / Fold change vs veh, TRMT61B / RFU, FUBP3 / Fold change vs veh, FUBP3 / RFU, TP53 / Fold change vs veh, TP53 / RFU, TNKS2 / Fold change vs veh, TNKS2 / RFU, ZFP14 / Fold change vs veh, ZFP14 / RFU, ACTR2 / Fold change vs veh, ACTR2 / RFU, PPP3R1 / Fold change vs veh, PPP3R1 / RFU, PIK3R1 / Fold change vs veh, PIK3R1 / RFU, HNRNPA1 / Fold change vs veh, HNRNPA1 / RFU, RNF170 / Fold change vs veh, RNF170 / RFU, ZNF28 / Fold change vs veh, ZNF28 / RFU, RNGTT / Fold change vs veh, RNGTT / RFU, OGT / Fold change vs veh, OGT / RFU, BRD1 / Fold change vs veh, BRD1 / RFU, MARS / Fold change vs veh, MARS / RFU, ZNF655 / Fold change vs veh, ZNF655 / RFU, FAHD1 / Fold change vs veh, FAHD1 / RFU, BDP1 / Fold change vs veh, BDP1 / RFU, LRRCC1 / Fold change vs veh, LRRCC1 / RFU, ARID1A / Fold change vs veh, ARID1A / RFU, ZNF146 / Fold change vs veh, ZNF146 / RFU, ZNF330 / Fold change vs veh, ZNF330 / RFU, GPN3 / Fold change vs veh, GPN3 / RFU, C9orf123 / Fold change vs veh, C9orf123 / RFU, N4BP2L2 / Fold change vs veh, N4BP2L2 / RFU, ARFIP1 / Fold change vs veh, ARFIP1 / RFU, FAM179B / Fold change vs veh, FAM179B / RFU, BCL10 / Fold change vs veh, BCL10 / RFU, UHRF1BP1L / Fold change vs veh, UHRF1BP1L / RFU, BET1 / Fold change vs veh, BET1 / RFU, CNOT2 / Fold change vs veh, CNOT2 / RFU, ZNF268 / Fold change vs veh, ZNF268 / Fold change vs veh, ZNF507 / RFU, DGCR2 / Fold change vs veh, DGCR2 / RFU, WDSUB1 / Fold change vs veh, WDSUB1 / Fold change vs veh, HSP90B1 /// MIR3652 / RFU, ADSS / Fold change vs veh, ADSS / RFU, GK / Fold change vs veh, GK / RFU, ZNF148 / Fold change vs veh, ZNF148 / RFU, TAF9 / Fold change vs veh, TAF9 / RFU, SLC1A5 / Fold change vs veh, SLC1A5 / RFU, SLMO2 / Fold change vs veh, SLMO2 / RFU, ABCC4 / Fold change vs veh, ABCC4 / RFU, LOC101060439 /// RAP1B / Fold change vs veh, LOC101060439 /// RAP1B / RFU, RFX7 / Fold change vs veh, RFX7 / RFU, GTPBP10 / Fold change vs veh, GTPBP10 / RFU, CNEP1R1 / Fold change vs veh, CNEP1R1 / RFU, BIVM-ERCC5 /// ERCC5 / Fold change vs veh, BIVM-ERCC5 /// ERCC5 / RFU, ILF3 / Fold change vs veh, ILF3 / RFU 11762660_at / Fold change /veh 11762660_at / RFU VCAN (11757783_s_at) / Fold change /veh VCAN (11757783_s_at) / RFU DDX43 (11728927_at) / Fold change /veh DDX43 (11728927_at) / RFU KRT8 (11758188_x_at) / Fold change /veh KRT8 (11758188_x_at) / RFU NKD1 (11759106_at) / Fold change /veh NKD1 (11759106_at) / RFU SRD5A1 (11742802_a_at) / Fold change /veh SRD5A1 (11742802_a_at) / RFU TPSAB1 /// TPSB2 (11721975_s_at) / Fold change /veh TPSAB1 /// TPSB2 (11721975_s_at) / RFU GSTM3 (11746129_a_at) / Fold change /veh GSTM3 (11746129_a_at) / RFU IL23R (11737362_x_at) / Fold change /veh IL23R (11737362_x_at) / RFU TMEM51 (11727254_a_at) / Fold change /veh TMEM51 (11727254_a_at) / RFU PIWIL2 (11732686_x_at) / Fold change /veh PIWIL2 (11732686_x_at) / RFU ORM1 (11744905_x_at) / Fold change /veh ORM1 (11744905_x_at) / RFU CCDC152 (11743942_at) / Fold change /veh CCDC152 (11743942_at) / RFU ECM1 (11717891_a_at) / Fold change /veh ECM1 (11717891_a_at) / RFU IL23R (11748794_a_at) / Fold change /veh IL23R (11748794_a_at) / RFU TNFAIP8L3 (11732012_x_at) / Fold change /veh TNFAIP8L3 (11732012_x_at) / RFU MBOAT4 (11741988_at) / Fold change /veh MBOAT4 (11741988_at) / RFU 11764193_at / Fold change /veh 11764193_at / RFU TMEM53 (11763286_at) / Fold change /veh TMEM53 (11763286_at) / RFU MAGEB2 (11727129_at) / Fold change /veh MAGEB2 (11727129_at) / RFU TMEM200A (11744735_a_at) / Fold change /veh TMEM200A (11744735_a_at) / RFU CCDC152 (11751479_a_at) / Fold change /veh CCDC152 (11751479_a_at) / RFU FAM211A (11726209_a_at) / Fold change /veh FAM211A (11726209_a_at) / RFU RGS16 (11746705_a_at) / Fold change /veh RGS16 (11746705_a_at) / RFU VCAN (11755009_s_at) / Fold change /veh VCAN (11755009_s_at) / RFU RHOB (11743442_s_at) / Fold change /veh RHOB (11743442_s_at) / RFU RGS16 (11720943_a_at) / Fold change /veh RGS16 (11720943_a_at) / RFU RGS16 (11720944_at) / Fold change /veh RGS16 (11720944_at) / RFU, VPS4B / Fold change vs veh, VPS4B / RFU, CREB1 / Fold change vs veh, CREB1 / RFU, DNAJC13 / Fold change vs veh, DNAJC13 / RFU, GNAQ / Fold change vs veh, GNAQ / RFU, CDK5R1 / Fold change vs veh, CDK5R1 / RFU, ZRANB3 / Fold change vs veh, ZRANB3 / RFU, CUL4A / Fold change vs veh, CUL4A / RFU, CCNY / Fold change vs veh, CCNY / RFU, UFL1 / Fold change vs veh, UFL1 / RFU, COG3 / Fold change vs veh, COG3 / RFU, DIAPH2 / Fold change vs veh, DIAPH2 / RFU, SKA2 / Fold change vs veh, SKA2 / RFU, AFF3 / Fold change vs veh, AFF3 / RFU, LMF1 / Fold change vs veh, LMF1 / RFU, IPO11 / Fold change vs veh, IPO11 / RFU, DFFB / Fold change vs veh, DFFB / RFU, FOXP1 / Fold change vs veh, FOXP1 / RFU, CARD8 / Fold change vs veh, CARD8 / RFU, STRN3 / Fold change vs veh, STRN3 / RFU, ADK / Fold change vs veh, ADK / RFU, RASSF2 / Fold change vs veh, RASSF2 / RFU, WIPF1 / Fold change vs veh, WIPF1 / RFU, LARP1B / Fold change vs veh, LARP1B / RFU, RASA1 / Fold change vs veh, RASA1 / RFU, RB1 / Fold change vs veh, RB1 / RFU, PPFIA1 / Fold change vs veh, PPFIA1 / RFU, MAT2A / Fold change vs veh, MAT2A / RFU, CCT5 / Fold change vs veh, CCT5 / RFU, WDR92 / Fold change vs veh, WDR92 / RFU, CUX1 / Fold change vs veh, CUX1 / RFU, TTC7A / Fold change vs veh, TTC7A / RFU, TMEM135 / Fold change vs veh, TMEM135 / RFU, DEPTOR / Fold change vs veh, DEPTOR / RFU, CPM / Fold change vs veh, CPM / RFU, DNAJB6 / Fold change vs veh, DNAJB6 / RFU, CACNA2D3 / Fold change vs veh, CACNA2D3 / RFU, DTX4 / Fold change vs veh, DTX4 / RFU, TFCP2 / Fold change vs veh, TFCP2 / RFU, GMCL1 /// GMCL1P1 / Fold change vs veh, GMCL1 /// GMCL1P1 / RFU, AEBP2 / Fold change vs veh, AEBP2 / RFU, SNHG1 /// SNORD22 /// SNORD25 /// SNORD26 /// SNORD27 /// SNORD28 /// SNORD29 /// SNORD31 / Fold change vs veh, SNHG1 /// SNORD22 /// SNORD25 /// SNORD26 /// SNORD27 /// SNORD28 /// SNORD29 /// SNORD31 / Fold change (Aza/veh), C12orf56 (ProbeSet 11735607_a_at) / Fold change (ACY-1035/veh), C12orf56 (ProbeSet 11735607_a_at) / Fold change (Aza/veh), FGFR1OP (ProbeSet 11751329_s_at) / Fold change (ACY-1035/veh), FGFR1OP (ProbeSet 11751329_s_at) / Fold change (Aza/veh), VPS36 (ProbeSet 11739960_a_at) / Fold change (ACY-1035/veh), VPS36 (ProbeSet 11739960_a_at) / RFU SYPL1 (11715823_x_at) / Fold change /veh SYPL1 (11715823_x_at) / RFU IGFBP7 (11715501_s_at) / Fold change /veh IGFBP7 (11715501_s_at) / RFU REEP3 (11722064_at) / Fold change /veh REEP3 (11722064_at) / RFU IGLL1 (11728026_x_at) / Fold change /veh IGLL1 (11728026_x_at): dose or concentration left out as unconfirmed
Details: MV-4-11 cells, 48 hours

Nc1ccc(-c2cccs2)cc1NC(=O)c1ccc2c(c1)cc(C1CC1)n2CCN1CCOCC1 [ACY-1035]
RFU RGS16 (11720943_a_at): 70.47 RFU

Reference: article PMC5218480 (PLoS ONE, 2017)
